Assay results published in patent publication US11897898B2, “Pyridine macrocycle compounds as ASK1 inhibiting agents” (BIOGEN MA INC., priority 2018, dated 2024).

Experiments:
[1] = target: T1, ASK1/MAP3K5 (Homo sapiens, UniProt Q99683); assay: ASK1 enzyme assay (ASK1/MAP3K5 assay by Reaction Biology Corp., 33P-ATP filter-binding); type: biochemical; details: 20 μM myelin basic protein and 10 μM ATP
T1 construct: purchased Reaction Biology Corp. (Malvern, Pa.)
T1 sequence (Q99683 1-1374): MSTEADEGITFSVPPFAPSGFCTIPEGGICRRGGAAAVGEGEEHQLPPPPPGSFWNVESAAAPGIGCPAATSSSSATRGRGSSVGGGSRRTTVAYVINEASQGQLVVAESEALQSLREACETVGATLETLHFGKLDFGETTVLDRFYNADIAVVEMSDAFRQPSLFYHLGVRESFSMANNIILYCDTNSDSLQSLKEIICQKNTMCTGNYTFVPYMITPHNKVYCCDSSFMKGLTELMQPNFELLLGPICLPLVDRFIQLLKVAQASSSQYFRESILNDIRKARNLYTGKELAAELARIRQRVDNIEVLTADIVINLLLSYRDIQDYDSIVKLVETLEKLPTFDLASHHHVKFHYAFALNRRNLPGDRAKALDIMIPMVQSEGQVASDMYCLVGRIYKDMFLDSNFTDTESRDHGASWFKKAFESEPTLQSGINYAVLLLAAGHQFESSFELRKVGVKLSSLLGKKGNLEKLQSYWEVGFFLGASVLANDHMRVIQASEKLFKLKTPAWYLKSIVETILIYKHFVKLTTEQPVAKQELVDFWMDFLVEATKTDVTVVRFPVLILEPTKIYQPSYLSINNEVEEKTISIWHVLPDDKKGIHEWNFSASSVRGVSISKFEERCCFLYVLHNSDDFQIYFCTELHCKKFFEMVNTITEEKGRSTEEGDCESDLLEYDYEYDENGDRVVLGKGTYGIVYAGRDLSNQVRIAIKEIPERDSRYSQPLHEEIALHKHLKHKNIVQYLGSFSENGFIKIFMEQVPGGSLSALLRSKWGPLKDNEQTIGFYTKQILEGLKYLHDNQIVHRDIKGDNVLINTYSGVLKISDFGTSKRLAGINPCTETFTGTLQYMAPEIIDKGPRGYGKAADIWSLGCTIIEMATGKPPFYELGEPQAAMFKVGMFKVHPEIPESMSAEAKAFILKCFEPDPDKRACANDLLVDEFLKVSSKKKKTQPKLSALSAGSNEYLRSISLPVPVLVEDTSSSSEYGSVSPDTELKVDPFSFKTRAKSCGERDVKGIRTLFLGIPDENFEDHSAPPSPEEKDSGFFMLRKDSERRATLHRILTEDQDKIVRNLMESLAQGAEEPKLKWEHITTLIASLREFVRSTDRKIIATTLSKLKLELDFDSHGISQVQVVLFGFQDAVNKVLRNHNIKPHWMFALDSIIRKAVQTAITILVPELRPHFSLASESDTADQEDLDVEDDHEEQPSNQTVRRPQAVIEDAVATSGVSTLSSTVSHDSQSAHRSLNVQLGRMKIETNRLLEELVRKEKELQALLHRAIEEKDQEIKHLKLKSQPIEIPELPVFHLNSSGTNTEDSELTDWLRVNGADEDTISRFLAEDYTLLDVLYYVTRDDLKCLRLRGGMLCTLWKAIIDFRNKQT
Protocol: The protein kinase inhibitory activity of the compounds described herein were tested using the ASK1/MAP3K5 assay by Reaction Biology Corp. (Malvern, Pa.). The assay procedure follows (and is also available on the Reaction Biology Corp. website). • Base Reaction Buffer: 20 mM Hepes (pH 7.5), 10 mM MgCl2, 1 mM EGTA, • 0.02% Brij35, 0.02 mg/mL BSA, 0.1 mM Na3VO4, 2 mM DTT, 1% DMSO; • Substrate: 20 μM of myelin basic protein (MBP) and 10 μM ATP; • Protein kinase: ASK1/MAP3K5. • Reaction Procedure: • 1. Prepare indicated substrate in freshly prepared Base Reaction Buffer. • 2. Deliver any required cofactors to the substrate solution. • 3. Deliver indicated kinase into the substrate solution and gently mix. • 4. Deliver compounds in DMSO into the kinase reaction mixture by Acoustic; technology (Echo550; nanoliter range), incubate for 20 minutes at room temperature. • 5. Deliver ^33P-ATP (specific activity 10 μCi/μL) into the reaction mixture to initiate the reaction. • 6. Incubate kinase reaction for 2 hours at room temperature. • 7. Reactions are spotted onto P81 ion exchange paper. • 8. Detect kinase activity by filter-binding method.

[2] = target: T2, ASK1 T838 auto phosphorylation (Homo sapiens, UniProt Q99683); assay: ASK1 (AUTO PHOS T838) assay in HEK-293T cells, MSD format; type: cell-based; details: HEK-293T cells transfected with ASK1-V5, 1 hr compound incubation
T2 construct: ASK1-V5 tagged full length plasmid; expressed in transfected cells; host or cells: HEK-293T
T2 sequence (Q99683 1-1374): T1 sequence (Q99683 1-1374)
Protocol: ASK1 T838 auto phosphorylation was measured in HEK-293T cells using MSD assay format. HEK 293T cells were seeded in 15 cm plates at a density of 18 million cells and 20 mL DMEM with 10% FBS, Pen/Strep media. The plates were incubated at 37° C. overnight. Media on plates was changed to OPTI-MEM, serum free media and cells were transfected with 9 μg of ASK1-V5 tagged full length plasmid using Lipofectamine 2000 (Invitrogen) and the plates were incubated at 37° C. overnight. Cells were trypsinized, counted on Nexcellometer and plated into 96 well tissue culture plates with 100,000 cells/well and 200 μL media. Cells were incubated for 4 hr at 37° C. then ASK1 compounds were added using a HP 300e. Compounds were tested at 20 μM with 3 fold, 10 point dilution points then incubated for 1 hr at 37° C. A lysis buffer (Cell Signaling) was prepared with protease and phosphatase inhibitor and maintained at 4° C. until use. Media from cells was discarded and 120 μL of cold lysis buffer was added to the cells, the plate was shaken 4° C. for 1 hr. Lysate was mixed using Apricot liquid handler; aspirating up and down 16 times at high speed using 50 μL volume. 50 μL of cell lysates were transferred to a pre-coated MSD plates containing mouse anti-V5 antibody (1:500 dilution) and washed 3× with MSD wash buffer (TBST) and blocked with a 3% BSA solution. Plates were then incubated on a plate shaker overnight at 4° C. Plates were washed 3× with MSD wash buffer and 50 μL of rabbit anti-pASK1 T838 antibody was added to the wells and incubated for 2 hr at room temperature on a plate shaker. Plates were then washed and 50 μL of goat anti-rabbit sulfa-tag (1:500 dilution) was added to wells, and incubated for 1 hr at room temperature on a plate shaker. Plates were washed 3× and 150 μL of 2×MSD Read buffer was added to wells. Plates were immediately read on a MSD Instrument Reader where chemoluminecense signal was measured. Data was analyzed using Graph Pad or Genedata, the data was normalized and plotted, % activity versus log of compound concentration. The IC50 values were obtained from a 4 parameter fit.

SMILES | IC50 ([1]; class symbols) | IC50 [2] | IC50 ([2]; class symbols) | IC50 [1]
C[C@@H]1CCCOc2ncc(Br)cc2C(=O)Nc2cccc(n2)-c2nncn21 (single isomer, unassigned) [Compound 2] | 1 to 10 µM | ≥ 10 µM |  | 
C[C@@H]1CCCOc2ncccc2C(=O)Nc2cccc(n2)-c2nncn21 (single isomer, unassigned) [Compound 5] | 1 to 10 µM | ≥ 10 µM |  | 
C[C@@H]1CN(c2cnc3c(c2)C(=O)Nc2cccc(n2)-c2nncn2[C@@H](C)CCCO3)CCN1C (single isomer, unassigned) [Compound 12] | ≤ 0.1 µM |  | ≤ 0.1 µM | 
C[C@H]1CN(c2cnc3c(c2)C(=O)Nc2cccc(n2)-c2nncn2[C@@H](C)CCCO3)CCN1C (single isomer, unassigned) [Compound 13] | ≤ 0.1 µM |  | 0.1 to 1 µM | 
Cc1cn(-c2cnc3c(c2)C(=O)Nc2cccc(n2)-c2nncn2[C@@H](C)CCCO3)cn1 (single isomer, unassigned) [Compound 30] | ≤ 0.1 µM |  | ≤ 0.1 µM | 
Cc1cncn1-c1cnc2c(c1)C(=O)Nc1cccc(n1)-c1nncn1[C@@H](C)CCCO2 (single isomer, unassigned) [Compound 31] | ≤ 0.1 µM |  | 0.1 to 1 µM | 
CC1CCCOc2ncccc2C(=O)Nc2cccc(n2)-c2nncn21 (stereo not shown) [Compound 3, 10-Methyl-1^4H-6-oxa-3-aza-2(2,6),5(3,2)-dipyridina-1(3,4)-triazolacyclodecaphan-4-one] | ≤ 0.1 µM |  | 0.1 to 1 µM | 
C[C@@H]1CCCOc2ncc(N3CCOCC3)cc2C(=O)Nc2cccc(n2)-c2nncn21 [Compound 6, (R)-10-Methyl-5^5-morpholino-1^4H-6-oxa-3-aza-2(2,6),5(3,2)-dipyridina-1(3,4)-triazolacyclodecaphan-4-one] |  |  | 1 to 10 µM | 
C[C@H]1CCCOc2ncc(C3CCN(C)CC3)cc2C(=O)Nc2cccc(n2)-c2nncn21 [Compound 16, (S)-10-Methyl-5^5-(1-methylpiperidin-4-yl)-1^4H-6-oxa-3-aza-2(2,6),5(3,2)-dipyridina-1(3,4)-triazolacyclodecaphan-4-one] |  |  | ≤ 0.1 µM | 
C[C@@H]1CCCOc2ncc(-c3ccncc3)cc2C(=O)Nc2cccc(n2)-c2nncn21 [Compound 18, (R)-10-Methyl-5^5-(pyridin-4-yl)-1^4H-6-oxa-3-aza-2(2,6),5(3,2)-dipyridina-1(3,4)-triazolacyclodecaphan-4-one] |  |  | 1 to 10 µM | 
C[C@H]1CCCOc2ncc(-c3cncnc3)cc2C(=O)Nc2cccc(n2)-c2nncn21 [Compound 21, (S)-10-Methyl-5^5-(pyrimidin-5-yl)-1^4H-6-oxa-3-aza-2(2,6),5(3,2)-dipyridina-1(3,4)-triazolacyclodecaphan-4-one] | ≤ 0.1 µM |  |  | 
C[C@H]1CCCOc2ncc(-c3cnn(C)c3)cc2C(=O)Nc2cccc(n2)-c2nncn21 [Compound 26, (S)-10-Methyl-5^5-(1-methyl-1H-pyrazol-4-yl)-1^4H-6-oxa-3-aza-2(2,6),5(3,2)-dipyridina-1(3,4)-triazolacyclodecaphan-4-one] |  |  | ≤ 0.1 µM | 
Cc1cnn(-c2cnc3c(c2)C(=O)Nc2cccc(n2)-c2nncn2[C@@H](C)CCCO3)c1 [Compound 27, (S)-10-Methyl-5^5-(4-methyl-1H-pyrazol-1-yl)-1^4H-6-oxa-3-aza-2(2,6),5(3,2)-dipyridina-1(3,4)-triazolacyclodecaphan-4-one] |  |  | 0.1 to 1 µM | 
C[C@H]1CCCOc2ncc(-n3ccc(C(F)(F)F)n3)cc2C(=O)Nc2cccc(n2)-c2nncn21 [Compound 29, (S)-10-Methyl-5^5-(3-(trifluoromethyl)-1H-pyrazol-1-yl)-1^4H-6-oxa-3-aza-2(2,6),5(3,2)-dipyridina-1(3,4)-triazolacyclodecaphan-4-one] |  |  | 0.1 to 1 µM | 

The next lines start with the values.

IC50 ([1]; class symbols) | IC50 [2] | IC50 ([2]; class symbols) | IC50 [1] | SMILES
≤ 0.1 µM |  | ≤ 0.1 µM |  | C[C@H]1CCCOc2ncc(-n3cnc(C4CC4)c3)cc2C(=O)Nc2cccc(n2)-c2nncn21 (single isomer, unassigned) [Compound 32]
≤ 0.1 µM |  | 0.1 to 1 µM |  | C[C@H]1CCCOc2ncc(-n3cncc3C3CC3)cc2C(=O)Nc2cccc(n2)-c2nncn21 (single isomer, unassigned) [Compound 33]
 | ≥ 10 µM |  | ≥ 10 µM | C[C@@H]1CCCOc2ncc(C(F)(F)F)cc2C(=O)Nc2cccc(n2)-c2nncn21 (single isomer, unassigned) [Compound 42]
 |  | 0.1 to 1 µM |  | C#Cc1cnc2c(c1)C(=O)Nc1cccc(n1)-c1nncn1[C@@H](C)CCCO2 [Compound 34, (S)-5^5-Ethynyl-10-methyl-1^4H-6-oxa-3-aza-2(2,6),5(3,2)-dipyridina-1(3,4)-triazolacyclodecaphan-4-one]
 |  | 0.1 to 1 µM |  | C[C@H]1CCCOc2ncc(C#CC3CC3)cc2C(=O)Nc2cccc(n2)-c2nncn21 [Compound 35, (S)-5^5-(Cyclopropylethynyl)-10-methyl-1^4H-6-oxa-3-aza-2(2,6),5(3,2)-dipyridina-1(3,4)-triazolacyclodecaphan-4-one]
 |  | 0.1 to 1 µM |  | C[C@H]1CCCOc2ncc(C3CC3)cc2C(=O)Nc2cccc(n2)-c2nncn21 [Compound 36, (S)-5^5-Cyclopropyl-10-methyl-1^4H-6-oxa-3-aza-2(2,6),5(3,2)-dipyridina-1(3,4)-triazolacyclodecaphan-4-one]
 |  | 0.1 to 1 µM |  | C[C@H]1CCCOc2ncc(S(C)(=O)=O)cc2C(=O)Nc2cccc(n2)-c2nncn21 [Compound 43, (S)-10-Methyl-5^5-(methylsulfonyl)-1^4H-6-oxa-3-aza-2(2,6),5(3,2)-dipyridina-1(3,4)-triazolacyclodecaphan-4-one]
